Data taken from US9801960B2, “Probe for a biological specimen and labelling method and screening method using the probe” (CANON KABUSHIKI KAISHA, priority 2008, dated 2017).
Blank lines part the entries; values can stand above or below the molecule they belong to.

How the values were obtained:
[1] = Storage stability of staining compound solution in DMSO; assay type: physicochemical; details: 10 ng/mL in DMSO, closed glass container, normal temperature, 1 month; rate of change of absorbance and fluorescence intensity
In short: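 Compounds held as 10 ng/mL DMSO solutions in closed glass containers at normal temperature for 1 month. Rates of change in absorbance and fluorescence intensity at a given wavelength versus start were scored: +++ <5%, ++ 5–15%, − >15%.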

[2] = Excitation and fluorescence emission wavelength measurement; assay type: physicochemical; parameters: Stokes shift (λem − λex): unit not given here; details: aqueous solution: 10 mg/mL solution in DMSO diluted 500-fold with purified water
Description: It should be noted that the excitation wavelength and the fluorescence emission wavelength of the staining compound were determined by measuring an aqueous solution, which had been obtained by diluting 500-fold a 10 mg/mL solution of the staining compound in DMSO with purified water, with a fluorescence spectrophotometer FL 4500 manufactured by Hitachi High-Technologies Corporation.

Zebrafish juveniles = experiment: In vivo labelling of Zebrafish juveniles with probe for biological specimen; parameters: key to Staining property: +++: stained; −: no stained; key to Fluorescence sensitivity: +++: strongly observed; ++: moderately observed; +: weakly observed; −: no stained; details: 1 hour; for Site(s) to be labelled: 10 ng/mL in water, stereoscopic microscope; for Fluorescence sensitivity / Staining property: 10 ng/mL; for Fluorescence sensitivity: fluorescence intensity visually evaluated; for Staining property: visually evaluated
In short: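 Five zebrafish juveniles were immersed in distilled water containing staining compound at 10 ng/mL (DMSO solution) for 1 hour. They were then washed three times with Egg Water, immobilised in 3% methylcellulose and imaged by stereomicroscope. Staining and fluorescence intensity were scored visually on a +++ to − scale.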

Compound: CCN1c2ccc(/C=C3/SC(=S)N(CCC(=O)O)C3=O)cc2C2CCCC21 (stereo not shown) [Dye 123]
- Storage stability [1]: +++ (rates of change of the absorbance and the fluorescence intensity are less than 5%, and thus, the storage stability is highly excellent)
- Excitation wavelength λex [2]: 564 nm
- Fluorescence emission wavelength λem [2]: 651 nm
- Stokes shift (λem − λex) [2]: 87
- Site(s) to be labelled (Zebrafish juveniles): gallbladder and gastrointestinal tract
- Fluorescence sensitivity (Zebrafish juveniles): +++
- Staining property (Zebrafish juveniles): +++

Compound: CCN1c2ccc(/C=C/c3sc4ccccc4[n+]3CC(=O)O)cc2C2CCCC21 (stereo not shown) [Dye 124]
- Storage stability [1]: +++ (rates of change of the absorbance and the fluorescence intensity are less than 5%, and thus, the storage stability is highly excellent)
- Excitation wavelength λex [2]: 605 nm
- Fluorescence emission wavelength λem [2]: 618 nm
- Stokes shift (λem − λex) [2]: 13
- Site(s) to be labelled (Zebrafish juveniles): nose
- Fluorescence sensitivity (Zebrafish juveniles): +++
- Staining property (Zebrafish juveniles): +++

Compound: COc1ccc(N2c3ccc(/C=C4/SC(=S)N(CCC(=O)O)C4=O)cc3C3CCCC32)cc1 (stereo not shown) [Dye 127]
- Storage stability [1]: +++ (rates of change of the absorbance and the fluorescence intensity are less than 5%, and thus, the storage stability is highly excellent)
- Excitation wavelength λex [2]: 564 nm
- Fluorescence emission wavelength λem [2]: 651 nm
- Stokes shift (λem − λex) [2]: 87
- Site(s) to be labelled (Zebrafish juveniles): blood vessel, liver, and gastrointestinal tract
- Fluorescence sensitivity (Zebrafish juveniles): +++
- Staining property (Zebrafish juveniles): +++

Compound: COc1ccc(N2c3ccc(/C=C4\C(=O)N(c5ccccc5)N=C4C(=O)O)cc3C3CCCC32)cc1 (stereo not shown) [Dye 128]
- Storage stability [1]: +++ (rates of change of the absorbance and the fluorescence intensity are less than 5%, and thus, the storage stability is highly excellent)
- Excitation wavelength λex [2]: 530 nm
- Fluorescence emission wavelength λem [2]: 690 nm
- Stokes shift (λem − λex) [2]: 160
- Site(s) to be labelled (Zebrafish juveniles): blood vessel, liver, and gastrointestinal tract
- Fluorescence sensitivity (Zebrafish juveniles): ++
- Staining property (Zebrafish juveniles): +++

Compound: O=C(O)CCN1C(=O)/C(=C\c2ccc3c(c2)C2CCCC2N3c2ccccc2)SC1=S (stereo not shown) [Dye 129]
- Storage stability [1]: +++ (rates of change of the absorbance and the fluorescence intensity are less than 5%, and thus, the storage stability is highly excellent)
- Excitation wavelength λex [2]: 522 nm
- Fluorescence emission wavelength λem [2]: 611 nm
- Stokes shift (λem − λex) [2]: 89
- Site(s) to be labelled (Zebrafish juveniles): blood vessel, gallbladder, and gastrointestinal
- Fluorescence sensitivity (Zebrafish juveniles): +++
- Staining property (Zebrafish juveniles): +++

Compound: O=C(O)CCN1C(=O)/C(=C\c2ccc3c(c2)C2CCCC2N3c2ccccc2)SC1=S (stereo not shown) [Dye 130]
- Storage stability [1]: +++ (rates of change of the absorbance and the fluorescence intensity are less than 5%, and thus, the storage stability is highly excellent)
- Excitation wavelength λex [2]: 541 nm
- Fluorescence emission wavelength λem [2]: 619 nm
- Stokes shift (λem − λex) [2]: 78
- Site(s) to be labelled (Zebrafish juveniles): blood vessel, liver, and gastrointestinal tract
- Fluorescence sensitivity (Zebrafish juveniles): +++
- Staining property (Zebrafish juveniles): +++

Compound: COc1ccc(N2c3ccc(/C=C(/C#N)C(=O)O)cc3C3CCCC32)cc1 (stereo not shown) [Dye 131]
- Storage stability [1]: +++ (rates of change of the absorbance and the fluorescence intensity are less than 5%, and thus, the storage stability is highly excellent)
- Excitation wavelength λex [2]: 440 nm
- Fluorescence emission wavelength λem [2]: 580 nm
- Stokes shift (λem − λex) [2]: 140
- Site(s) to be labelled (Zebrafish juveniles): liver and gastrointestinal tract
- Fluorescence sensitivity (Zebrafish juveniles): +++
- Staining property (Zebrafish juveniles): +++

Compound: C=CCN1C(=O)/C(=c2\s/c(=C/c3ccc4c(c3)C3CCCC3N4c3ccc(OC)cc3)c(=O)n2CC(=O)O)SC1=S (stereo not shown) [Dye 132]
- Storage stability [1]: +++ (rates of change of the absorbance and the fluorescence intensity are less than 5%, and thus, the storage stability is highly excellent)
- Excitation wavelength λex [2]: 530 nm
- Fluorescence emission wavelength λem [2]: 680 nm
- Stokes shift (λem − λex) [2]: 150
- Site(s) to be labelled (Zebrafish juveniles): blood vessel
- Fluorescence sensitivity (Zebrafish juveniles): +++
- Staining property (Zebrafish juveniles): +++

Compound: C=CCN1C(=O)/C(=c2\s/c(=C/c3ccc4c(c3)C3CCCC3N4c3ccccc3)c(=O)n2CC(=O)O)SC1=S (stereo not shown) [Dye 133]
- Storage stability [1]: +++ (rates of change of the absorbance and the fluorescence intensity are less than 5%, and thus, the storage stability is highly excellent)
- Excitation wavelength λex [2]: 510 nm
- Fluorescence emission wavelength λem [2]: 690 nm
- Stokes shift (λem − λex) [2]: 180
- Site(s) to be labelled (Zebrafish juveniles): blood vessel
- Fluorescence sensitivity (Zebrafish juveniles): +++
- Staining property (Zebrafish juveniles): +++

Compound: CSc1ccc(N2c3ccc(/C=C(/C#N)C(=O)O)cc3C3CCCC32)cc1 (stereo not shown) [Dye 134]
- Storage stability [1]: +++ (rates of change of the absorbance and the fluorescence intensity are less than 5%, and thus, the storage stability is highly excellent)
- Excitation wavelength λex [2]: 440 nm
- Fluorescence emission wavelength λem [2]: 600 nm
- Stokes shift (λem − λex) [2]: 160
- Site(s) to be labelled (Zebrafish juveniles): blood vessel
- Fluorescence sensitivity (Zebrafish juveniles): +++
- Staining property (Zebrafish juveniles): +++

Compound: CSc1ccc(N2c3ccc(/C=C(/C#N)C(=O)O)cc3C3CCCC32)cc1 (stereo not shown) [Dye 135]
- Storage stability [1]: +++ (rates of change of the absorbance and the fluorescence intensity are less than 5%, and thus, the storage stability is highly excellent)
- Excitation wavelength λex [2]: 430 nm
- Fluorescence emission wavelength λem [2]: 600 nm
- Stokes shift (λem − λex) [2]: 170
- Site(s) to be labelled (Zebrafish juveniles): blood vessel
- Fluorescence sensitivity (Zebrafish juveniles): +++
- Staining property (Zebrafish juveniles): +++

Compound: C[n+]1c(/C=c2\s/c(=C/c3ccc4c(c3)C3CCCC3N4c3ccc(C=C(c4ccccc4)c4ccccc4)cc3)c(=O)n2CC(=O)O)sc2ccccc21 (stereo not shown) [Dye 136]
- Storage stability [1]: +++ (rates of change of the absorbance and the fluorescence intensity are less than 5%, and thus, the storage stability is highly excellent)
- Excitation wavelength λex [2]: 560 nm
- Fluorescence emission wavelength λem [2]: 760 nm
- Stokes shift (λem − λex) [2]: 200
- Site(s) to be labelled (Zebrafish juveniles): gastrointestinal tract
- Fluorescence sensitivity (Zebrafish juveniles): +++
- Staining property (Zebrafish juveniles): +++

Compound: CCn1c(=O)/c(=C\c2ccc3c(c2)C2CCCC2N3c2ccccc2)s/c1=C1/SC(=S)N(CC(=O)O)C1=O (stereo not shown) [Dye 137]
- Storage stability [1]: +++ (rates of change of the absorbance and the fluorescence intensity are less than 5%, and thus, the storage stability is highly excellent)
- Excitation wavelength λex [2]: 590 nm
- Fluorescence emission wavelength λem [2]: 700 nm
- Stokes shift (λem − λex) [2]: 110
- Site(s) to be labelled (Zebrafish juveniles): gallbladder and gastrointestinal tract
- Fluorescence sensitivity (Zebrafish juveniles): +++
- Staining property (Zebrafish juveniles): +++

Now from value to molecule, other results behind:

- Excitation wavelength λex [2]: 540 nm
- Fluorescence emission wavelength λem [2]: 690 nm
- Stokes shift (λem − λex) [2]: 150
Compound: CCN1C(=O)/C(=c2\s/c(=C/c3ccc4c(c3)C3CCCC3N4c3cccc(SC)c3)c(=O)n2CC(=O)O)SC1=S (stereo not shown) [Dye 138]
- Storage stability [1]: +++ (rates of change of the absorbance and the fluorescence intensity are less than 5%, and thus, the storage stability is highly excellent)
- Site(s) to be labelled (Zebrafish juveniles): gastrointestinal tract
- Fluorescence sensitivity (Zebrafish juveniles): +++
- Staining property (Zebrafish juveniles): +++

- Excitation wavelength λex [2]: 570 nm
- Fluorescence emission wavelength λem [2]: 640 nm
- Stokes shift (λem − λex) [2]: 70
Compound: CC[N+]1=C(C=c2s/c(=C/c3ccc4c(c3)C3CCCC3N4c3ccccc3)c(=O)n2CC(=O)O)C(C)(C)c2ccccc21 (stereo not shown) [Dye 139]
- Storage stability [1]: +++ (rates of change of the absorbance and the fluorescence intensity are less than 5%, and thus, the storage stability is highly excellent)
- Site(s) to be labelled (Zebrafish juveniles): nose
- Fluorescence sensitivity (Zebrafish juveniles): +++
- Staining property (Zebrafish juveniles): +++

- Excitation wavelength λex [2]: 510 nm
- Fluorescence emission wavelength λem [2]: 650 nm
- Stokes shift (λem − λex) [2]: 140
Compound: O=C(O)CN1C(=O)/C(=C2C=C/C(=C\c3ccc4c(c3)C3CCCC3N4c3ccccc3)C\2)SC1=S (stereo not shown) [Dye 140]
- Storage stability [1]: +++ (rates of change of the absorbance and the fluorescence intensity are less than 5%, and thus, the storage stability is highly excellent)
- Site(s) to be labelled (Zebrafish juveniles): gastrointestinal tract
- Fluorescence sensitivity (Zebrafish juveniles): +++
- Staining property (Zebrafish juveniles): +++

- Excitation wavelength λex [2]: 380 nm
- Fluorescence emission wavelength λem [2]: 490 nm
- Stokes shift (λem − λex) [2]: 110
Compound: O=C1/C(=C/c2ccc3c(c2)C2CCCC2N3c2ccccc2)Oc2ccc(I)cc21 (stereo not shown) [Dye 141]
- Storage stability [1]: +++ (rates of change of the absorbance and the fluorescence intensity are less than 5%, and thus, the storage stability is highly excellent)
- Site(s) to be labelled (Zebrafish juveniles): gastrointestinal tract
- Fluorescence sensitivity (Zebrafish juveniles): +++
- Staining property (Zebrafish juveniles): +++

- Excitation wavelength λex [2]: 530 nm
- Fluorescence emission wavelength λem [2]: 680 nm
- Stokes shift (λem − λex) [2]: 150
Compound: COc1ccc(N2c3ccc(/C=C4\Oc5ccc(I)cc5C4=O)cc3C3CCCC32)cc1 (stereo not shown) [Dye 142]
- Storage stability [1]: +++ (rates of change of the absorbance and the fluorescence intensity are less than 5%, and thus, the storage stability is highly excellent)
- Site(s) to be labelled (Zebrafish juveniles): gastrointestinal tract
- Fluorescence sensitivity (Zebrafish juveniles): +++
- Staining property (Zebrafish juveniles): +++

- Excitation wavelength λex [2]: 784 nm
- Fluorescence emission wavelength λem [2]: 811 nm
- Stokes shift (λem − λex) [2]: 27
Compound: CC1(C)C(/C=C/C=C/C=C/C=C2\N(CCCCS(=O)(=O)O)c3ccc4ccccc4c3C2(C)C)=[N+](CCCCS(=O)(=O)[O-])c2ccc3ccccc3c21 [ICG, indocyanine green, reference compound]
- Storage stability [1]: − (rates of change of the absorbance and fluorescence intensity are more than 15%, and thus, the storage stability is poor)
- Site(s) to be labelled (Zebrafish juveniles): liver
- Fluorescence sensitivity (Zebrafish juveniles): +
- Staining property (Zebrafish juveniles): +++
